# Assay results published in ChEMBL document CHEMBL1142005, “Utilization of a nitrobenzoxadiazole (NBD) fluorophore in the design of a Grb2 SH2 domain-binding peptide mimetic” (Bioorg Med Chem Lett, 2005).
# pIC50, pKd: −log10 of the molar value.
# How the values were obtained:
# [1] = molecular target: T1, Growth factor receptor-bound protein 2 (Homo sapiens, UniProt P62993); assay: First order rate constant (kon) for human growth factor receptor bound protein 2
# Target sequence in this assay (P62993 whole entry, looked up): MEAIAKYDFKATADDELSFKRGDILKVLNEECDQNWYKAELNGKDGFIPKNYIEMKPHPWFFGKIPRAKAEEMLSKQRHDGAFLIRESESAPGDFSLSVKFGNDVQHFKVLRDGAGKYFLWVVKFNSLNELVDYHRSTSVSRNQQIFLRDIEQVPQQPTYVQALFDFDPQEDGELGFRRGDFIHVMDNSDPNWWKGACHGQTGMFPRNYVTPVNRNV
# [2] = molecular target: T1, Growth factor receptor-bound protein 2; assay: First order rate constant (koff) for human growth factor receptor bound protein 2
# Target sequence in this assay (P62993 whole entry, looked up): as above
# [3] = molecular target: T1, Growth factor receptor-bound protein 2; assay: Apparent dissociation constant for human growth factor receptor bound protein 2
# Target sequence in this assay (P62993 whole entry): as the sequence (P62993 whole entry, looked up) above
# [4] = molecular target: T1, Growth factor receptor-bound protein 2; assay: Inhibitory concentration for human growth factor receptor bound protein 2
# Target sequence in this assay (P62993 whole entry): as the sequence (P62993 whole entry, looked up) above
Compound,kon [1],k off [2] [s⁻¹],pKd [3],pIC50 [4]
NC(=O)C[C@H](NC(=O)C1(NC(=O)[C@@H](CC(=O)O)Cc2ccc(CP(=O)(O)O)cc2)CCCCC1)C(=O)NCCCc1cccc2ccccc12,4.18e+06 1/M1/S,0.0991,7.62,–
NC(=O)C[C@H](NC(=O)C1(NC(=O)[C@@H](CC(=O)O)Cc2ccc(CP(=O)(O)O)cc2)CCCCC1)C(=O)NCCNc1ccc([N+](=O)[O-])c2nonc12,1.18e+06 1/M1/S,0.14,6.92,6.78
